Test results from paper PMC5970223, “Multiplexed profiling of GPCR activities by combining split TEV assays and EXT-based barcoded readouts” (Scientific Reports, 2018).
Counter-ions that a name gives are not always drawn. Like-named read-outs stand apart in the source and are kept apart here. Each block holds one compound with its values, some of them ahead of it.

Key:
HRH1 = conditions: cited from earlier work; for drug effect, IUPHAR: ref IUPHAR, Supplementary refs 2,3, 7, 10
HTR2A [1] = conditions: GF62 cells; cited from earlier work
histamine receptor HRH1 = test system: T1, histamine receptor HRH1; experiment: multiplexed GPCRprofiler assay in U2OS cells; assay type: cell-based, human; conditions: for drug-induced effect, GPCRprofiler: Supplementary Table S4, HRH1; for antagonistic effect on HRH1: U2OS cells, drug 1 h before agonist-mix (1 µM each)
T1 construct: ORFs of GPCRs were PCR amplified; expressed in transfected cells; host or cells: U2OS
Method: (§1) Two hours after transfection, all cell populations were pooled, mixed, and evenly divided into fractions for plating onto assay dishes (Fig. 2a). The cells were cultured and stimulated under identical conditions for agonist or antagonist assays as initially described for GPCR split TEV assays (Supplementary Fig. S1a,b).
(§2) After cell lysis, RNA from each sample was isolated and converted into cDNA by reverse transcription. […] This permits the mixing of all samples and sequencing of all pooled samples using a single sequencing run (Fig. 2b). The sample barcodes enable tracing experimental conditions, whereas the read counts per EXTs serve as quantitative measurements for the corresponding GPCRs. […] From the normalized data the fold changes of receptor activities were finally calculated.
(§3) Next, we applied the multiplexed GPCRprofiler to measure the effects of GPCR targeting drugs on receptor activity. […] In addition, binding affinities to α-adrenergic receptors and the histamine receptor HRH1 were described for paliperidone using biochemical assays[38]–[40]. […] To address any changes in GPCR activities caused by the selected drugs, receptors were stimulated for 6 h applying two different parameters. First, to monitor agonistic effects, GPCRs were treated with the drugs only (Supplementary Fig. S1a). Second, to measure antagonistic effects, GPCRs were treated both with the drugs and the corresponding agonist (Supplementary Fig. S1b). This experimental design therefore allows to identify potential antagonistic effects of agonists and vice versa. For a profiling experiment, drugs were applied at increasing concentrations. […] Alternatively, a drug-induced inhibition of agonist-mediated GPCR activation specifies the drug as antagonist.
(§4) Cells were resuspended in culture medium without antibiotics at a density of 1.5 × 10^6 cells/ml (U2OS) or 3 × 10^6 cells/ml (PC12). […] Transfection-mixes were added to cell suspensions and incubated for 2 h at 37 °C without shaking. Suspensions were centrifuged for 5 min at 900 rpm and resuspended in culture medium to remove transfection reagents. All transfection samples were combined within one pool and plated on multiple wells of 6-well plates and incubated for 24 h at 37 °C. Afterwards, cells were starved for 17–18 h and then treated with compounds for 6 h in duplicates. After compound treatment cells were washed with PBS and 500 µl RLT lysis buffer was applied for cell lysis. Lysates were processed for sequencing as described below.
(§5) RNA was additional in solution treated with Turbo DNase (Ambion) for 30 min at 37 °C and repurified over an RNeasy column. First-strand cDNA synthesis was performed with 1 µg total RNA using superscript III reverse transcriptase (Invitrogen) and 120 pmol of a random nanomer primer. […] On order to differentiate different samples 13mer barcodes were introduced between 5′ Ion adapter and target sequence. All processed samples of an experiment were combined within one pool and purified using PCR clean-up kit (Macherey-Nagel).
(§6) Raw sequencing data analyses were done by using BLAST algorithm and in-house developed R scripts.

serotonin receptor HTR1A = test system: T2, serotonin receptor HTR1A; experiment: multiplexed GPCRprofiler assay in U2OS cells; assay type: cell-based, human; conditions: multiplexed GPCR assay
T2 construct: ORFs of GPCRs were PCR amplified; HA-Flag signal peptide (N); expressed in transfected cells; host or cells: U2OS
Method: as §1, §2, §3, §4, §5, §6

[2] = test system: T3, α-adrenergic receptor ADRA2C; experiment: multiplexed GPCRprofiler assay in U2OS cells; assay type: cell-based, human; conditions: for drug-induced effect, GPCRprofiler: Supplementary Table S4, ADRA2C; for antagonistic effect on ADRA2C: U2OS cells, drug 1 h before agonist-mix (1 µM each)
T3 construct: ORFs of GPCRs were PCR amplified; expressed in transfected cells; host or cells: U2OS
Method: as §1, §2, §3, §4, §5, §6

ADRA2C = test system: ADRA2C; design: method as in PubChem, Supplementary refs 1, 17; conditions: ref PubChem, Supplementary refs 1, 17; cited from earlier work
serotonin receptor HTR2A [3] = molecular target: T4, serotonin receptor HTR2A (Homo sapiens, UniProt P28223); experiment: multiplexed GPCRprofiler assay in U2OS cells; assay type: cell-based; conditions: for agonistic effect on HTR2A (drug alone): drug only for 6 h, subtle = less than 2-fold change, three consecutive increases
Method: as §1, §2
(§7) In addition to the stimulation with the single compounds, a compound-mixture (mix) of all agonists was tested. The first set of experiments were carried out in the human osteosarcoma cell line U2OS. We normalized the raw sequencing data to total read numbers of sample codes, followed by averaging reads of internal and external calibrator EXTs as described above (Supplementary Fig. S4).
as §3
Cells were resuspended in culture medium without antibiotics at a density of 1.5 × 10^6 cells/ml (U2OS) or 3 × 10^6 cells/ml (PC12). […] Transfection-mixes were added to cell suspensions and incubated for 2 h at 37 °C without shaking. Suspensions were centrifuged for 5 min at 900 rpm and resuspended in culture medium to remove transfection reagents.

ADRA2B = test system: ADRA2B; design: method as in PubChem, Supplementary refs 1, 6, 17; conditions: ref PubChem, Supplementary refs 1, 6, 17; cited from earlier work
HTR2A [4] = conditions: cited from earlier work; for drug effect, PubChem: ref PubChem, Supplementary refs 1, 4–6, 8,9
serotonin receptor HTR2A [5] = molecular target: T4, serotonin receptor HTR2A; conditions: PC12 cells
Method: as §1, §2
as §4, with “After compound treatment cells were washed with PBS and 500 µl RLT lysis buffer was applied for cell lysis. Lysates were processed for sequencing as described below.” left out

[6] = test system: dopamine and the adrenergic receptors; conditions: U2OS cells, agonist 100 pM to 100 µM
Method: as §1, §2, §7, §4
(§8) RNA was additional in solution treated with Turbo DNase (Ambion) for 30 min at 37 °C and repurified over an RNeasy column. […]

serotonin receptor HTR5A = conditions: U2OS cells (not in PC12 cells)
Method: as §1, §2, §7, §4, §8

HTR2A serotonin receptor = HTR2A serotonin receptor (Homo sapiens, UniProt P28223); experiment: single GPCR split TEV assay, luciferase readout (β-arrestin2 recruitment); assay type: cell-based; conditions: standard single luciferase GPCR split TEV assay, validation (Fig. 4f); read-out: IC50 of HTR2A receptor inhibition
From the text: (§9) GPCR split TEV assays allow monitoring ligand-dependent GPCR activities using the stimulation-dependent interaction of β-arrestin2 and a candidate GPCR. […] To do this, the NTEV fragment and the artificial transcription factor GAL4-VP16 (GV) were fused to the C-terminal end of a candidate GPCR, separated by a TEV cleavage site (tevS) (Fig. 1a,b). To improve the stability of the interaction between a given GPCR and the arrestin, a short sequence from the C-terminal end of the human arginine vasopressin receptor 2 (AVPR2) (abbreviated V2R) was introduced between a candidate GPCR and NTEV[17],[27]. V2R contains multiple phosphorylation sites for GRKs. These sites provide, when phosphorylated, enhanced binding of β-arrestin.
For these assays, cells were transiently transfected with GPCR split TEV components and reporters, which were allowed to express for 20 h. […] For antagonistic assays, compounds were added 1 h before agonist to ensure proper incubation (Supplementary Fig. S1b). For clarity, varying experimental conditions, such as plate formats, for applied assay formats are summarized in Supplementary Table S3.
For luciferase assays cells were plated on 96-well white plates at 4 × 10^4 cells/well (PC12) one day before the experiment. The assays were performed with 6 wells as replicates per condition. […]

DRD2 = conditions: ref PubChem, Supplementary refs 1, 4,5, 12–14; cited from earlier work
[7] = test system: T5, α-adrenergic receptor ADRA2B; experiment: multiplexed GPCRprofiler assay in U2OS cells; assay type: cell-based, human
T5 construct: ORFs of GPCRs were PCR amplified; expressed in transfected cells; host or cells: U2OS (multiplexed assays)
Method: as §1, §2, §3, §4, §5, §6

dopamine receptor DRD2 [8] = molecular target: T6, dopamine receptor DRD2 (Homo sapiens, UniProt P14416); experiment: multiplexed GPCRprofiler assay in U2OS cells; assay type: cell-based
dopamine receptor DRD2 [9] = molecular target: T6, dopamine receptor DRD2; experiment: standard single luciferase GPCR split TEV assay; assay type: cell-based; conditions: validation (Fig. 4e), read-out: IC50 of DRD2 receptor inhibition
From the text: as §9
For luciferase assays cells were plated on 96-well white plates at 4 × 10^4 cells/well (PC12) one day before the experiment. The assays were performed with 6 wells as replicates per condition. […] Plasmids and lipofectamine 2000 transfection reagent (Invitrogen) were diluted in opti-MEM (Gibco) and incubated for 20 min at room temperature. Medium was removed from cells, the transfection-mix was added and the plates incubated for 2 h at 37 °C, followed by the adding of double-volume of culture medium to dilute transfection reagents. […]

[10] = U2OS cells, drug 1 h before agonist-mix (1 µM each)

T4 sequence (P28223 81-471 limits assumed): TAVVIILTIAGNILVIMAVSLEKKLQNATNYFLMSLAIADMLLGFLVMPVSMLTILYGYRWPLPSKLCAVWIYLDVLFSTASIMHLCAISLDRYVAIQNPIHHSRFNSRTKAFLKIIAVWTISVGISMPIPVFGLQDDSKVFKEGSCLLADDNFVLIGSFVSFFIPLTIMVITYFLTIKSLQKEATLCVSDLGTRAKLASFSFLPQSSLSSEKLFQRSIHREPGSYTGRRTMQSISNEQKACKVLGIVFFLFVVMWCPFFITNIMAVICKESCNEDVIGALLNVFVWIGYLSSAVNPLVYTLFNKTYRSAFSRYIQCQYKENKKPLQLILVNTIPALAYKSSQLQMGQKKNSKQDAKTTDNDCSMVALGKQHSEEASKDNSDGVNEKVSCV
T6 sequence (P14416 1-414 isoform P14416-2): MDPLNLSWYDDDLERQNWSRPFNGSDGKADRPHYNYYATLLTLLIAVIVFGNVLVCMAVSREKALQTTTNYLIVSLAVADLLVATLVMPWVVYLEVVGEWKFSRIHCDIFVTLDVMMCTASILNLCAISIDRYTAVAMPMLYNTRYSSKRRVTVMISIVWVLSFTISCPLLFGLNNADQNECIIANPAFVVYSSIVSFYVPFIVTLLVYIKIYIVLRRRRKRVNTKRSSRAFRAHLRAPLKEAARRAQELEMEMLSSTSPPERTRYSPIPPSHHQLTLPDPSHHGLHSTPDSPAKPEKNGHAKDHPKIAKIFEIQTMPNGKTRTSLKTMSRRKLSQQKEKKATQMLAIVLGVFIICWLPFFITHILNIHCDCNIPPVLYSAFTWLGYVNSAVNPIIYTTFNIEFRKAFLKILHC
Sequence of HTR2A serotonin receptor (P28223 81-471 limits assumed): as the sequence (P28223 81-471 limits assumed) above

SMILES: O=C1CCc2ccc(OCCCCN3CCN(c4cccc(Cl)c4Cl)CC3)cc2N1 [Aripiprazole]
- drug effect, IUPHAR (HRH1): Antagonist
- drug effect, PubChem (HRH1; ref PubChem, Supplementary refs 1, 4–6, 17): Antagonist
- effect on HTR2A reported in the literature (HTR2A [1]): weak partial agonistic effect
- drug-induced effect, GPCRprofiler (histamine receptor HRH1): Antagonist
- antagonistic effect on HRH1 (histamine receptor HRH1): inhibited
- partial agonism on HTR1A (serotonin receptor HTR1A): not detected
- drug-induced effect, GPCRprofiler [2]: Antagonist
- antagonistic effect on ADRA2C [2]: inhibited
- drug effect, PubChem (ADRA2C): Antagonist
- agonistic effect on HTR2A (drug alone) (serotonin receptor HTR2A [3]; U2OS cells): concentration-dependent agonistic effect
- agonistic effect on HTR2A (drug alone) (serotonin receptor HTR2A [3]; U2OS cells, listed as aripiprazole): subtle agonistic effects
- drug effect, PubChem (ADRA2B): Antagonist
- drug effect, PubChem (HTR2A [4]): Antagonist

- activation of HTR2A by non-cognate agonist (serotonin receptor HTR2A [5]): activation
- activation of HTR2A by non-cognate agonist (serotonin receptor HTR2A [3]; U2OS cells): activation
- signals of both receptor subfamilies (dopamine and adrenergic) upon stimulation [6]: elevated signals
- activation of HTR5A by non-cognate agonist (serotonin receptor HTR5A): activated by dopamine in U2OS cells only
SMILES: NCCc1ccc(O)c(O)c1 [Dopamine, Dopamine hydrochloride]

- IC50 (HTR2A serotonin receptor): 3.65 nM
- drug-induced effect, GPCRprofiler (dopamine receptor DRD2 [8]; Supplementary Table S4, DRD2): Antagonist
- drug-induced effect, GPCRprofiler (serotonin receptor HTR2A [3]; Supplementary Table S4, HTR2A): Antagonist
- IC50 (dopamine receptor DRD2 [9]): 188 nM
SMILES: Cc1nc2n(c(=O)c1CCN1CCC(c3noc4cc(F)ccc34)CC1)CCCC2O (stereo not shown) [Paliperidone]
- drug effect, PubChem (DRD2): Antagonist
- drug effect, IUPHAR (HRH1): Antagonist
- drug-induced effect, GPCRprofiler (histamine receptor HRH1): Antagonist
- antagonistic effect on HRH1 (histamine receptor HRH1): dose-dependent inhibition of receptor activity
- drug-induced effect, GPCRprofiler [2]: Antagonist
- antagonistic effect on ADRA2C [2]: dose-dependent inhibition of receptor activity
- drug-induced effect, GPCRprofiler ([7]; Supplementary Table S4, ADRA2B): Antagonist
- antagonistic effect on ADRA2B [7, 10]: dose-dependent inhibition of receptor activity
- antagonistic effect on DRD2 (dopamine receptor DRD2 [8]; [10]): dose-dependent inhibition of receptor activity
- antagonistic effect on HTR2A (serotonin receptor HTR2A [3]; [10]): dose-dependent inhibition of receptor activity
- drug effect, PubChem (ADRA2B): Antagonist
- drug effect, IUPHAR (HTR2A [4]; ref IUPHAR, Supplementary refs 2,3, 7, 10,11): Antagonist
- drug effect, PubChem (HTR2A [4]): Antagonist
